Columns and labels:
[1] = Bioavailability in Sprague-Dawley rat at 3.0 mg/kg, po; format: ADME, organism-based; details: in vivo
[2] = Plasma clearance in Sprague-Dawley rat at 1.0 mg/kg, iv or 3.0 mg/kg, po; format: ADME, organism-based

bioavailability [1]	clearance [2]	SMILES
31%	36 mL/min/kg	CC(C)(C)OC(=O)N[C@H](Cc1ccccc1C(F)(F)F)C(=O)NCc1nc2cccnc2n1C(C)(C)C
10%	87 mL/min/kg	CC(C)(C)OC(=O)N[C@H](Cc1ccccc1C(F)(F)F)C(=O)NCc1nc2cccnc2n1CC(F)(F)C(F)(F)F
54%	4.2 mL/min/kg	O=C(NCc1nc2cccnc2n1C1(c2ccccc2)CC1)[C@@H](Cc1c(F)cccc1F)NC(=O)C1(C(F)(F)F)CC1
44%	3 mL/min/kg	CC(C)(C)OC(=O)N[C@H](Cc1ccccc1C(F)(F)F)C(=O)NCc1nc2cccnc2n1C1(c2ccccc2)CC1
25%	114 mL/min/kg	CC(C)(C)OC(=O)N[C@H](Cc1ccccc1C(F)(F)F)C(=O)NCc1nc2cccnc2n1CC1CC1
78%	9.3 mL/min/kg	O=C(NCc1nc2cccnc2n1C1(c2ccccc2)CC1)[C@@H](Cc1ccccc1Cl)NC(=O)C1(C(F)(F)F)CC1
7%	113 mL/min/kg	CC(C)(C)OC(=O)N[C@H](Cc1ccccc1C(F)(F)F)C(=O)NCc1nc2cccnc2n1CC(F)(F)F
36%	21 mL/min/kg	C[C@@H](c1ccccc1)n1c(CNC(=O)[C@@H](Cc2ccccc2C(F)(F)F)NC(=O)OC(C)(C)C)nc2cccnc21
57%	22 mL/min/kg	C[C@H](c1ccccc1)n1c(CNC(=O)[C@@H](Cc2ccccc2C(F)(F)F)NC(=O)OC(C)(C)C)nc2cccnc21
17%	64 mL/min/kg	CC(C)(C)Cn1c(CNC(=O)[C@@H](Cc2ccccc2C(F)(F)F)NC(=O)OC(C)(C)C)nc2cccnc21
41%	15 mL/min/kg	CC(C)(C)OC(=O)N[C@H](Cc1ccccc1C(F)(F)F)C(=O)NCc1nc2cccnc2n1Cc1ccccc1
47%	7.5 mL/min/kg	CC(C)(C)OC(=O)N[C@H](Cc1ccccc1F)C(=O)NCc1nc2cccnc2n1C1(c2ccccc2)CC1
85%	6.6 mL/min/kg	O=C(NCc1nc2cccnc2n1C1(c2ccccc2)CC1)[C@@H](Cc1c(F)ccc(F)c1F)NC(=O)C1(C(F)(F)F)CC1

— ChEMBL document CHEMBL1141499, “Imidazopyridines: a novel class of hNav1.7 channel blockers” (Bioorg Med Chem Lett, 2008)
